Measurements: ChEMBL document CHEMBL1777711, “Synthesis and bioactivity of new Finasteride conjugate” (Bioorg Med Chem Lett, 2011)
Active and inactive are the calls of the source. The rule behind the calls is not given here.

Key:
[1] = tested on: Rattus norvegicus; assay: Inhibition of testosterone propionate-induced castrated Wistar rat benign prostatic hyperplasia model assessed as decrease in epithelial protrusions at 10 mg/kg, iv by histochemistry; assay type: functional, organism-based; design: dose 10 mg/kg; conditions: Wister
[2] = tested on: Rattus norvegicus; assay: Inhibition of testosterone propionate-induced castrated Wistar rat benign prostatic hyperplasia model assessed as decrease in pseudostratified epithelia at 10 mg/kg, iv by histochemistry; assay type: functional, organism-based; design: dose 10 mg/kg; conditions: Wister
[3] = tested on: Rattus norvegicus; assay: Toxicity in testosterone propionate-induced castrated Wistar rat benign prostatic hyperplasia model assessed as body weight at 2 to 50 mg/kg, iv for 14 days; assay type: organism-based, Wister; design: dose 2-50 mg/kg, route intravenous; conditions: in vivo, 336 h
[4] = tested on: Rattus norvegicus; assay: Inhibition of testosterone propionate-induced castrated Wistar rat benign prostatic hyperplasia model assessed as decrease in seminal vesicles weight at 10 mg/kg, iv for 14 days; assay type: functional, organism-based; design: dose 10 mg/kg; conditions: Wister
[5] = tested on: Rattus norvegicus; assay: Inhibition of testosterone propionate-induced castrated Wistar rat benign prostatic hyperplasia model assessed as prostate gland arrangement order at 10 mg/kg, iv by histochemistry; assay type: functional, organism-based; design: dose 10 mg/kg; conditions: Wister
[6] = tested on: Rattus norvegicus; assay: Inhibition of testosterone propionate-induced castrated Wistar rat benign prostatic hyperplasia model assessed as decrease in hyperplasia of interstitial tissues at 10 mg/kg, iv by histochemistry; assay type: functional, organism-based; design: dose 10 mg/kg; conditions: Wister
[7] = target: T1, 3-oxo-5-alpha-steroid 4-dehydrogenase 2 (Rattus norvegicus, UniProt P31214); assay: Inhibition of rat 5-alpha-reductase type 2 by Lineweaver-Burk plot
T1 sequence (P31214 whole entry): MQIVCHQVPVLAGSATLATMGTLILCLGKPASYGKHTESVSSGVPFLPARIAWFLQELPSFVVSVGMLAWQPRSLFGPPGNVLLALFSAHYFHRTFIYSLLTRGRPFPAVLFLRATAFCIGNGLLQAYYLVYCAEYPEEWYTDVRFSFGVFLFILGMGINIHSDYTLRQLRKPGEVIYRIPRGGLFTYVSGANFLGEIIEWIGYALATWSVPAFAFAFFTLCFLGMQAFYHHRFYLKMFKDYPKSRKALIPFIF

[8] = tested on: Rattus norvegicus; assay: Inhibition of testosterone propionate-induced castrated Wistar rat benign prostatic hyperplasia model assessed as decrease in prostate weight at 10 mg/kg, iv for 14 days; assay type: functional, organism-based; design: dose 10 mg/kg; conditions: Wister, Prostate gland
[9] = tested on: Rattus norvegicus; assay: Inhibition of testosterone propionate-induced castrated Wistar rat benign prostatic hyperplasia model assessed as decrease in prostate weight at 50 mg/kg, iv for 14 days; assay type: functional, organism-based; design: dose 50 mg/kg; conditions: Wister, Prostate gland
[10] = tested on: Rattus norvegicus; assay: Toxicity in testosterone propionate-induced castrated Wistar rat benign prostatic hyperplasia model assessed as vital signs at 10 mg/kg, iv […]; assay type: organism-based, Wister; design: dose 10 mg/kg, route intravenous; conditions: in vivo
[11] = tested on: Rattus norvegicus; assay: Inhibition of testosterone propionate-induced castrated Wistar rat benign prostatic hyperplasia model assessed as decrease in seminal vesicles weight at 50 mg/kg, iv for 14 days; assay type: functional, organism-based; design: dose 50 mg/kg; conditions: Wister
[12] = tested on: Rattus norvegicus; assay: Inhibition of testosterone propionate-induced castrated Wistar rat benign prostatic hyperplasia model assessed as decrease in prostate weight at 2 mg/kg, iv for 14 days; assay type: functional, organism-based; design: dose 2 mg/kg; conditions: Wister, Prostate gland
[13] = tested on: Rattus norvegicus; assay: Inhibition of testosterone propionate-induced castrated Wistar rat benign prostatic hyperplasia model assessed as decrease in seminal vesicles weight at 2 mg/kg, iv for 14 days; assay type: functional, organism-based; design: dose 2 mg/kg; conditions: Wister

IC50 [7] [µM] | Structure (SMILES) | inhibition [1] | inhibition [2] | Activity [3] | inhibition [4] | inhibition [5] | inhibition [6] | inhibition [8] | inhibition [9] | Activity [10] | inhibition [11] | inhibition [12] | inhibition [13]
0.147 | CC(C)(C)NC(=O)[C@H]1CC[C@H]2[C@@H]3CC[C@H]4NC(=O)C=C[C@]4(C)[C@H]3CC[C@]12C [FINASTERIDE] | Active | Active | Non-toxic | Active | Active | Active | Active | – | – | – | – | –
0.088 | CC(C)(C)N(C(=O)C1CSCN1C(=O)C1CCC(=O)N1)C(=O)[C@H]1CC[C@H]2[C@@H]3CC[C@H]4NC(=O)C=C[C@]4(C)[C@H]3CC[C@]12C (stereo partly specified) | Active | Active | Non-toxic | Active | Active | Active | Active | Active | Non-toxic | Active | Active | Active
